Laboratory results: PubChem BioAssay (NCI)
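Each compound was tested at five concentrations against cells in 96-well plates for 48 hours. Here, GI50 denotes the concentration required for 50% inhibition of growth. Definition used: TGI = concentration required for complete inhibition of growth.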

How the values were obtained:
Assay in all cases: growth of human tumour cells (NCI), 48 h
SF-295 CNS = system: SF-295 CNS
SN12C renal = system: SN12C renal
HCC-2998 colon = system: HCC-2998 colon
SK-MEL-28 melanoma = system: SK-MEL-28 melanoma
DU-145 prostate = system: DU-145 prostate
U251 CNS = system: U251 CNS
PC-3 prostate = system: PC-3 prostate
UACC-257 melanoma = system: UACC-257 melanoma
SNB-75 CNS = system: SNB-75 CNS
A498 renal = system: A498 renal
SW-620 colon = system: SW-620 colon

Structure (SMILES) | GI50 (SF-295 CNS) [nM] | TGI (SF-295 CNS) [µM] | GI50 (SN12C renal) [nM] | TGI (SN12C renal) [µM] | GI50 (HCC-2998 colon) [nM] | TGI (HCC-2998 colon) [µM] | GI50 (SK-MEL-28 melanoma) [nM] | TGI (SK-MEL-28 melanoma) [µM] | GI50 (DU-145 prostate) [nM] | TGI (DU-145 prostate) [µM] | GI50 (U251 CNS) [nM] | TGI (U251 CNS) [µM] | GI50 (PC-3 prostate) [nM] | TGI (PC-3 prostate) [µM] | GI50 (UACC-257 melanoma) [nM] | TGI (UACC-257 melanoma) [µM] | GI50 (SNB-75 CNS) [nM] | TGI (SNB-75 CNS) [µM] | TGI (A498 renal) [µM] | TGI (SW-620 colon) [µM]
COc1cc(/C=C2\CN(S(=O)(=O)c3ccc(C)cc3)C/C(=C\c3cc(CN4CCCC4)c(O)c(OC)c3)C2=O)cc(CN2CCCC2)c1O | 2230 | 5.07 | 1240 | 2.8 | 1640 | 3.08 | 1920 | 3.51 | 926 | 2.15 | 820 | 2.34 | 1560 | 3.67 | 1530 | 3.17 | 1100 | 2.56 | – | –
CO[C@](C(=O)OC[C@H]1[C@@H](COC(C)=O)[C@@H]2O[C@H]1c1cc3c(cc12)OCO3)(c1ccccc1)C(F)(F)F | – | 58.6 | – | > 100 | – | 71.9 | – | > 100 | – | > 100 | – | > 100 | – | > 100 | – | > 100 | – | 71.5 | > 100 | > 100
Cc1ccc(C(=O)OC(C(=O)O)C(OC(=O)c2ccc(C)cc2)C(=O)O)cc1 (stereo not drawn) (tested in a mixture with another compound) | – | 16.7 | – | 32 | – | 10.1 | – | 19.7 | – | – | – | 22.2 | – | – | – | 13.7 | – | 14.8 | 24.5 | 10.2
O=C(CC1Sc2ccccc2NC1=O)Nc1ccccc1[N+](=O)[O-] (stereo not drawn) | – | > 100 | – | > 100 | – | > 100 | – | > 100 | – | – | – | > 100 | – | – | – | > 100 | – | > 100 | > 100 | > 100
Oc1ccc(NCn2c(=S)sc3ccccc32)cc1 | – | > 100 | – | > 100 | – | > 100 | – | > 100 | – | > 100 | – | > 100 | – | > 100 | – | > 100 | – | > 100 | > 100 | > 100
